Reference: the CheMixHub viscosity set
Values joined by “and” are separate entries in the source; they are usually repeats but may differ in a detail not shown here. Equal values may be shown once. ± gives the uncertainty stated by the source.

Test: xn = mol fraction of the nth substance listed
Conditions: 100 kPa

CN1CCCN(C)C1=O + O
viscosity
Conditions	303.15 K	308.15 K	313.15 K	318.15 K	323.15 K
x1 = 0.007139	0.942 ± 0.057 mPa·s	0.848 ± 0.051 mPa·s	0.769 ± 0.047 mPa·s	0.699 ± 0.042 mPa·s	–
x1 = 0.01508	1.127 ± 0.068 mPa·s	1.012 ± 0.061 mPa·s	0.919 ± 0.055 mPa·s	0.843 ± 0.051 mPa·s	–
x1 = 0.0297	1.386 ± 0.084 mPa·s	1.236 ± 0.075 mPa·s	1.112 ± 0.067 mPa·s	1.002 ± 0.06 mPa·s	–
x1 = 0.0568	1.979 ± 0.12 mPa·s	1.733 ± 0.1 mPa·s	1.538 ± 0.093 mPa·s	1.379 ± 0.083 mPa·s	–
x1 = 0.08573	2.774 ± 0.17 mPa·s	2.371 ± 0.14 mPa·s	2.05 ± 0.12 mPa·s	1.791 ± 0.11 mPa·s	–
x1 = 0.1227	3.836 ± 0.23 mPa·s	3.224 ± 0.19 mPa·s	2.741 ± 0.17 mPa·s	2.354 ± 0.14 mPa·s	–
x1 = 0.1461	4.568 ± 0.28 mPa·s	3.799 ± 0.23 mPa·s	3.201 ± 0.19 mPa·s	2.728 ± 0.16 mPa·s	–
x1 = 0.1745	5.342 ± 0.32 mPa·s	4.401 ± 0.27 mPa·s	3.676 ± 0.22 mPa·s	3.114 ± 0.19 mPa·s	–
x1 = 0.2062	5.943 ± 0.36 mPa·s	4.87 ± 0.29 mPa·s	4.051 ± 0.24 mPa·s	3.414 ± 0.2 mPa·s	–
x1 = 0.2453	6.471 ± 0.39 mPa·s	5.287 ± 0.32 mPa·s	4.386 ± 0.26 mPa·s	3.685 ± 0.22 mPa·s	–
x1 = 0.2961	6.828 ± 0.41 mPa·s	5.569 ± 0.34 mPa·s	4.616 ± 0.28 mPa·s	3.878 ± 0.23 mPa·s	–
x1 = 0.3486	6.796 ± 0.41 mPa·s	5.568 ± 0.34 mPa·s	4.626 ± 0.28 mPa·s	3.9 ± 0.23 mPa·s	–
x1 = 0.3968	6.483 ± 0.39 mPa·s	5.332 ± 0.32 mPa·s	4.45 ± 0.27 mPa·s	3.744 ± 0.23 mPa·s	–
x1 = 0.4616	6.161 ± 0.37 mPa·s	5.13 ± 0.31 mPa·s	4.326 ± 0.26 mPa·s	3.692 ± 0.22 mPa·s	–
x1 = 0.5081	5.768 ± 0.35 mPa·s	4.838 ± 0.29 mPa·s	4.11 ± 0.25 mPa·s	3.531 ± 0.21 mPa·s	–
x1 = 0.5809	5.129 ± 0.31 mPa·s	4.357 ± 0.26 mPa·s	3.75 ± 0.23 mPa·s	3.257 ± 0.2 mPa·s	–
x1 = 0.6498	4.532 ± 0.27 mPa·s	3.892 ± 0.23 mPa·s	3.37 ± 0.2 mPa·s	2.946 ± 0.18 mPa·s	–
x1 = 0.6917	4.245 ± 0.26 mPa·s	3.672 ± 0.22 mPa·s	3.202 ± 0.19 mPa·s	2.817 ± 0.17 mPa·s	–
x1 = 0.797	3.571 ± 0.21 mPa·s	3.134 ± 0.19 mPa·s	2.772 ± 0.17 mPa·s	2.468 ± 0.15 mPa·s	–
x1 = 0.8669	3.203 ± 0.19 mPa·s	2.837 ± 0.17 mPa·s	2.531 ± 0.15 mPa·s	2.274 ± 0.14 mPa·s	–
x1 = 0.9357	2.957 ± 0.18 mPa·s	2.647 ± 0.16 mPa·s	2.384 ± 0.14 mPa·s	2.16 ± 0.13 mPa·s	–
x1 = 0.9554	2.834 ± 0.17 mPa·s	2.533 ± 0.15 mPa·s	2.283 ± 0.14 mPa·s	2.071 ± 0.12 mPa·s	–
x2 = 0.0016	–	2.348 ± 0.14 mPa·s and 2.365 ± 0.14 mPa·s	2.126 ± 0.13 mPa·s and 2.141 ± 0.13 mPa·s	1.937 ± 0.12 mPa·s and 1.95 ± 0.12 mPa·s	1.777 ± 0.11 mPa·s and 1.784 ± 0.11 mPa·s
x2 = 0.0169	–	2.425 ± 0.15 mPa·s	2.191 ± 0.13 mPa·s	1.992 ± 0.12 mPa·s	1.819 ± 0.11 mPa·s
